Data as given in patent US20080171662A1, “Aminocarbonyl-Substituted Thiensulfonylamino(Thio)Carbonyl-Triazolin(Ethi)Ones, Processes For Their Preparation And Their Use” (priority 2004, published 2008).

melting point: 162 °C
SMILES: CCOc1nn(C(=O)NS(=O)(=O)c2c(C(=O)N(C)C)csc2C)c(=O)n1C [Example 1, 5-ethoxy-4-methyl-2-[(4-dimethylaminocarbonyl-2-methylthien-3-yl)sulfonylaminocarbonyl]-2,4-dihydro-3H-1,2,4-triazol-3-one]
